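A five-concentration, 48-hour dose response in 96-well plates underlies each endpoint, interpolated linearly between surrounding concentrations. TGI: concentration producing complete growth inhibition.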
Tests used:
Experiment in all cases: NCI-60 cell line screen, 48 h
OVCAR-3 ovarian = system: OVCAR-3 ovarian
HS 578T breast = system: HS 578T breast
HOP-62 NSCLC = system: HOP-62 NSCLC
SR leukemia = system: SR leukemia
UO-31 renal = system: UO-31 renal
MCF7 breast = system: MCF7 breast
A498 renal = system: A498 renal
HCC-2998 colon = system: HCC-2998 colon
T-47D breast = system: T-47D breast
MALME-3M melanoma = system: MALME-3M melanoma
SNB-75 CNS = system: SNB-75 CNS
COLO 205 colon = system: COLO 205 colon
HOP-92 NSCLC = system: HOP-92 NSCLC
U251 CNS = system: U251 CNS
NCI-H460 lung = system: NCI-H460 lung
CCRF-CEM leukemia = system: CCRF-CEM leukemia
M14 melanoma = system: M14 melanoma
RPMI-8226 leukemia = system: RPMI-8226 leukemia
SF-539 CNS = system: SF-539 CNS
DU-145 prostate = system: DU-145 prostate
EKVX NSCLC = system: EKVX NSCLC
SK-MEL-2 melanoma = system: SK-MEL-2 melanoma
LOX IMVI melanoma = system: LOX IMVI melanoma
UACC-62 melanoma = system: UACC-62 melanoma
A549 NSCLC = system: A549 NSCLC
SK-MEL-5 melanoma = system: SK-MEL-5 melanoma
MDA-MB-231 breast = system: MDA-MB-231 breast
NCI-H226 lung = system: NCI-H226 lung
HCT-15 colon = system: HCT-15 colon
HL-60(TB) leukemia = system: HL-60(TB) leukemia
SN12C renal = system: SN12C renal
TK-10 renal = system: TK-10 renal
HT29 colon = system: HT29 colon
OVCAR-5 ovarian = system: OVCAR-5 ovarian
786-0 renal = system: 786-0 renal
SF-295 CNS = system: SF-295 CNS
NCI-H522 lung = system: NCI-H522 lung
PC-3 prostate = system: PC-3 prostate
SW-620 colon = system: SW-620 colon
ACHN renal = system: ACHN renal
MDA-MB-435 = system: MDA-MB-435
SK-OV-3 ovarian = system: SK-OV-3 ovarian
HCT-116 colon = system: HCT-116 colon
RXF 393 renal = system: RXF 393 renal
MOLT-4 leukemia = system: MOLT-4 leukemia
MDA-N = system: MDA-N
NCI-H23 lung = system: NCI-H23 lung
IGROV1 ovarian = system: IGROV1 ovarian
K-562 leukemia = system: K-562 leukemia
CAKI-1 renal = system: CAKI-1 renal
SF-268 CNS = system: SF-268 CNS
BT-549 breast = system: BT-549 breast
UACC-257 melanoma = system: UACC-257 melanoma
OVCAR-8 ovarian = system: OVCAR-8 ovarian
KM12 colon = system: KM12 colon
SK-MEL-28 melanoma = system: SK-MEL-28 melanoma
SNB-19 CNS = system: SNB-19 CNS
OVCAR-4 ovarian = system: OVCAR-4 ovarian
NCI/ADR-RES ovarian = system: NCI/ADR-RES ovarian
HOP-18 NSCLC = system: HOP-18 NSCLC
DMS 273 small cell lung = system: DMS 273 small cell lung
DMS 114 small cell lung = system: DMS 114 small cell lung
LXFL 529 NSCLC = system: LXFL 529 NSCLC
M19-MEL melanoma = system: M19-MEL melanoma
DLD-1 colon = system: DLD-1 colon

Compound `Cc1ccc(S(=O)(=O)Nc2cc(=O)[nH]c3c2CCC3)cc1` has a TGI (OVCAR-3 ovarian) of over 100 µM, a TGI (HS 578T breast) of over 100 µM and a TGI (HOP-62 NSCLC) of over 100 µM. It also gave a TGI (SR leukemia) of over 100 µM, a TGI (UO-31 renal) of over 100 µM and a TGI (MCF7 breast) of over 100 µM. The TGI (A498 renal) was over 100 µM, the TGI (HCC-2998 colon) was over 100 µM and the TGI (T-47D breast) was over 100 µM. The TGI (MALME-3M melanoma) was over 100 µM, the TGI (SNB-75 CNS) was over 100 µM and the TGI (COLO 205 colon) was over 100 µM. It also gave a TGI (HOP-92 NSCLC) of over 100 µM, a TGI (U251 CNS) of over 100 µM and a TGI (NCI-H460 lung) of over 100 µM. For the same compound, the TGI (CCRF-CEM leukemia) was over 100 µM, the TGI (M14 melanoma) was over 100 µM and the TGI (RPMI-8226 leukemia) was over 100 µM. It also gave a TGI (SF-539 CNS) of over 100 µM, a TGI (DU-145 prostate) of over 100 µM and a TGI (EKVX NSCLC) of over 100 µM. For the same compound, the TGI (SK-MEL-2 melanoma) was over 100 µM, the TGI (LOX IMVI melanoma) was over 100 µM and the TGI (UACC-62 melanoma) was over 100 µM. For the same compound, the TGI (A549 NSCLC) was over 100 µM, the TGI (SK-MEL-5 melanoma) was over 100 µM and the TGI (MDA-MB-231 breast) was over 100 µM. For the same compound, the TGI (NCI-H226 lung) was over 100 µM, the TGI (HCT-15 colon) was over 100 µM and the TGI (HL-60(TB) leukemia) was over 100 µM. It also gave a TGI (SN12C renal) of over 100 µM, a TGI (TK-10 renal) of over 100 µM and a TGI (HT29 colon) of over 100 µM. For the same compound, the TGI (OVCAR-5 ovarian) was over 100 µM, the TGI (786-0 renal) was over 100 µM and the TGI (SF-295 CNS) was over 100 µM. The TGI (NCI-H522 lung) was over 100 µM, the TGI (PC-3 prostate) was over 100 µM and the TGI (SW-620 colon) was over 100 µM. For the same compound, the TGI (ACHN renal) was over 100 µM, the TGI (MDA-MB-435) was over 100 µM and the TGI (SK-OV-3 ovarian) was over 100 µM. For the same compound, the TGI (HCT-116 colon) was over 100 µM, the TGI (RXF 393 renal) was over 100 µM and the TGI (MOLT-4 leukemia) was over 100 µM. For the same compound, the TGI (MDA-N) was over 100 µM, the TGI (NCI-H23 lung) was over 100 µM and the TGI (IGROV1 ovarian) was over 100 µM. It also gave a TGI (K-562 leukemia) of over 100 µM, a TGI (CAKI-1 renal) of over 100 µM and a TGI (SF-268 CNS) of over 100 µM. The TGI (BT-549 breast) was over 100 µM, the TGI (UACC-257 melanoma) was over 100 µM and the TGI (OVCAR-8 ovarian) was over 100 µM. For the same compound, the TGI (KM12 colon) was over 100 µM, the TGI (SK-MEL-28 melanoma) was over 100 µM and the TGI (SNB-19 CNS) was over 100 µM. The TGI (OVCAR-4 ovarian) was over 100 µM and the TGI (NCI/ADR-RES ovarian) was over 100 µM.

`COc1ccc(C2S/C(=C\c3ccc([N+](=O)[O-])cc3)C(=O)N2NC(=O)Cc2ccccc2)cc1` (centres undefined) was tested, and the TGI (HOP-62 NSCLC) was over 100 µM, the TGI (SR leukemia) was over 100 µM and the TGI (UO-31 renal) was over 100 µM. For the same compound, the TGI (A498 renal) was over 100 µM, the TGI (MALME-3M melanoma) was over 100 µM and the TGI (SNB-75 CNS) was over 100 µM. It also gave a TGI (HOP-18 NSCLC) of over 100 µM, a TGI (COLO 205 colon) of over 100 µM and a TGI (HOP-92 NSCLC) of over 100 µM. For the same compound, the TGI (U251 CNS) was over 100 µM, the TGI (NCI-H460 lung) was over 100 µM and the TGI (CCRF-CEM leukemia) was over 100 µM. For the same compound, the TGI (M14 melanoma) was over 100 µM, the TGI (DMS 273 small cell lung) was over 100 µM and the TGI (RPMI-8226 leukemia) was over 100 µM. For the same compound, the TGI (SF-539 CNS) was over 100 µM, the TGI (DMS 114 small cell lung) was over 100 µM and the TGI (SK-MEL-2 melanoma) was over 100 µM. For the same compound, the TGI (LOX IMVI melanoma) was over 100 µM, the TGI (UACC-62 melanoma) was over 100 µM and the TGI (A549 NSCLC) was over 100 µM. For the same compound, the TGI (SK-MEL-5 melanoma) was over 100 µM, the TGI (NCI-H226 lung) was over 100 µM and the TGI (HCT-15 colon) was over 100 µM. The TGI (HL-60(TB) leukemia) was over 100 µM, the TGI (SN12C renal) was over 100 µM and the TGI (TK-10 renal) was over 100 µM. It also gave a TGI (LXFL 529 NSCLC) of over 100 µM, a TGI (HT29 colon) of over 100 µM and a TGI (OVCAR-5 ovarian) of over 100 µM. The TGI (786-0 renal) was over 100 µM, the TGI (SF-295 CNS) was over 100 µM and the TGI (M19-MEL melanoma) was over 100 µM. For the same compound, the TGI (NCI-H522 lung) was over 100 µM, the TGI (SW-620 colon) was over 100 µM and the TGI (ACHN renal) was over 100 µM. It also gave a TGI (SK-OV-3 ovarian) of over 100 µM, a TGI (HCT-116 colon) of over 100 µM and a TGI (RXF 393 renal) of over 100 µM. For the same compound, the TGI (MOLT-4 leukemia) was over 100 µM, the TGI (DLD-1 colon) was over 100 µM and the TGI (NCI-H23 lung) was over 100 µM. The TGI (IGROV1 ovarian) was over 100 µM, the TGI (K-562 leukemia) was over 100 µM and the TGI (CAKI-1 renal) was over 100 µM. It also gave a TGI (SF-268 CNS) of over 100 µM, a TGI (UACC-257 melanoma) of over 100 µM and a TGI (OVCAR-8 ovarian) of over 100 µM. It also gave a TGI (KM12 colon) of over 100 µM, a TGI (SK-MEL-28 melanoma) of over 100 µM and a TGI (OVCAR-4 ovarian) of over 100 µM.

`CN(CCCN1CCCC1)CCCN(C)C(=O)Cc1ccc(Cl)c(Cl)c1` showed a TGI (OVCAR-3 ovarian) of over 88.4 µM, a TGI (HS 578T breast) of 36 µM and a TGI (HOP-62 NSCLC) of 51 µM. The TGI (SR leukemia) was 28.2 µM, the TGI (UO-31 renal) was 9.64 µM and the TGI (MCF7 breast) was 31.6 µM. It also gave a TGI (A498 renal) of 28.1 µM, a TGI (HCC-2998 colon) of 20.6 µM and a TGI (T-47D breast) of 45.9 µM. The TGI (MALME-3M melanoma) was 34.6 µM, the TGI (SNB-75 CNS) was 42.6 µM and the TGI (COLO 205 colon) was 41.2 µM. For the same compound, the TGI (HOP-92 NSCLC) was 35.9 µM, the TGI (U251 CNS) was 29.7 µM and the TGI (NCI-H460 lung) was 33.8 µM. It also gave a TGI (CCRF-CEM leukemia) of 23.8 µM, a TGI (M14 melanoma) of 13.9 µM and a TGI (RPMI-8226 leukemia) of 22.4 µM. The TGI (SF-539 CNS) was over 53.2 µM, the TGI (DU-145 prostate) was over 100 µM and the TGI (EKVX NSCLC) was 62.5 µM. For the same compound, the TGI (SK-MEL-2 melanoma) was 28.2 µM, the TGI (LOX IMVI melanoma) was 27.9 µM and the TGI (UACC-62 melanoma) was 5.04 µM. It also gave a TGI (A549 NSCLC) of over 53.6 µM, a TGI (SK-MEL-5 melanoma) of 36.3 µM and a TGI (MDA-MB-231 breast) of 31.9 µM. For the same compound, the TGI (NCI-H226 lung) was 48 µM, the TGI (HCT-15 colon) was over 87 µM and the TGI (HL-60(TB) leukemia) was 37.1 µM. It also gave a TGI (SN12C renal) of 70.2 µM, a TGI (TK-10 renal) of 32.1 µM and a TGI (HT29 colon) of 17.5 µM. It also gave a TGI (OVCAR-5 ovarian) of 78.1 µM, a TGI (786-0 renal) of 29.2 µM and a TGI (SF-295 CNS) of 36.2 µM. For the same compound, the TGI (NCI-H522 lung) was 32.4 µM, the TGI (PC-3 prostate) was over 74.4 µM and the TGI (SW-620 colon) was 50.7 µM. It also gave a TGI (ACHN renal) of over 68.3 µM, a TGI (MDA-MB-435) of 11.7 µM and a TGI (SK-OV-3 ovarian) of over 89.6 µM. For the same compound, the TGI (HCT-116 colon) was 39.3 µM, the TGI (RXF 393 renal) was 31.9 µM and the TGI (MOLT-4 leukemia) was 32.4 µM. The TGI (MDA-N) was 16 µM, the TGI (NCI-H23 lung) was 54.8 µM and the TGI (IGROV1 ovarian) was 67.8 µM. The TGI (K-562 leukemia) was 18.3 µM, the TGI (CAKI-1 renal) was 49.1 µM and the TGI (SF-268 CNS) was over 51.5 µM. The TGI (BT-549 breast) was 46.2 µM, the TGI (UACC-257 melanoma) was 7.45 µM and the TGI (OVCAR-8 ovarian) was over 100 µM. The TGI (KM12 colon) was 60.5 µM, the TGI (SK-MEL-28 melanoma) was 5.26 µM and the TGI (SNB-19 CNS) was over 72.6 µM. It also gave a TGI (OVCAR-4 ovarian) of over 96.1 µM and a TGI (NCI/ADR-RES ovarian) of over 100 µM.
